Source: publication PMC6009866, “Inhibition behaviours of some phenolic acids on rat kidney aldose reductase enzyme: an in vitro study” (Journal of Enzyme Inhibition and Medicinal Chemistry, 2017)
Entries after “also recorded” stand apart in the source; their conditions may differ.

What was measured:
[1] = target: T1, rat kidney aldose reductase (Rattus norvegicus, UniProt P07943); assay: In vitro inhibition of purified rat kidney aldose reductase (NADPH absorbance decrease at 340 nm); format: biochemical; settings: for Inhibition type: from Lineweaver-Burk graph, substrate DL-glyceraldehyde; for IC50: purified rat kidney AR, 10 mM DL-glyceraldehyde, 0.5 mM NADPH, pH 6.2, from Activity%-[Inhibitor] graphs; for Inhibition effect (in words): rat kidney AR, compared to the other phenolic acids of the study
T1 construct: Purified rat kidney aldose reductase enzyme; from tissue; host or cells: rat kidney
Experimental: Aldose reductase activity was assayed by following the absorbance decrease of NADPH at 340 nm spectrophotometrically.
The dialyzed enzyme solution was loaded onto the DE-52 Cellulose anion exchange column previously equilibrated with 10 mM Na-phosphate buffer (pH 7.4). […] Eluted fractions were collected, and the enzyme activity was checked at 340 nm. The fractions with the enzyme activity were pooled and mixed with glycerol. Then this enzyme solution was loaded onto the Sephadex G-100 column equilibrated with 10 mM Na-phosphate buffer (pH 7.4). Fractions were analyzed for both protein amount (280 nm) and enzyme activity (340 nm). […] The enzyme activity was checked at 340 nm in collected fractions, and the tubes with enzyme activity were combined. All purification procedures were performed at 4 °C. SDS polyacrylamide gel electrophoresis was done to the control of enzyme purity.
In inhibition studies, aldose reductase activity was assayed by following the change in absorbance at 340 nm, spectrophotometrically. One millilitre of the reaction mix contained 0.2 M Na-phosphate buffer (pH = 6.2), 10 mM DL-glyceraldehyde, 0.5 mM NADPH and enzyme solution[45]. AR activity was measured in the presence of different concentrations of phenolic acids. A control sample without inhibitor was taken as 100%, and for each inhibitor, an Activity%-[Inhibitor] graphs were drawn. IC50 values were determined from Activity%-[Inhibitor] graphs. For determination of the Ki constant, three different phenolic acid concentrations were used, and DL-glyceraldehyde was also used as a substrate at five different concentrations. […] Analysis of data obtained was made by t-test and they are given as X ± SD.

[2] = system: human placental aldose reductase; parameters: method as in PMID 2505942; settings: cited from earlier work
[3] = Lineweaver-Burk graph, three inhibitor concentrations, five DL-glyceraldehyde concentrations, X ± SD
[4] = mixed-type inhibition, second constant, Lineweaver-Burk graph, X ± SD

Ki [1, 3] [µM] | Inhibition type [1] | IC50 [1] [µM] | Ki [1, 4] [µM] | Ki' [1, 4] [µM] | Compound | Inhibition effect (in words) [1] | Inhibition effect (in words) [2] | Inhibition type [2]
52.2 ± 20.8 | Noncompetitive | 50 |  |  | O=C(O)c1ccc(O)cc1 [4-Hydroxybenzoic acid] |  |  | 
43.4 | Noncompetitive | 33 |  |  | COc1cc(C=CC(=O)O)cc(OC)c1O [Sinapic acid, 3,5-Dimethoxy-4-hydroxycinnamic acid] |  |  | 
107 ± 21.6 | Noncompetitive | 95 |  |  | COc1cc(C(=O)O)cc(OC)c1O [Syringic acid] |  |  | 
103 ± 56.3 | Noncompetitive | 86 |  |  | COc1cc(C(=O)O)ccc1O [Vanillic acid, 4-hydroxy-3-methoxybenzoic acid] |  |  | 
53.1 ± 2 | Uncompetitive | 57 |  |  | O=C(O)/C=C/c1ccc(O)cc1 [p-Coumaric acid, trans-4-Hydroxycinnamic acid] |  |  | 
127 ± 22 | Noncompetitive | 110 |  |  | O=C(O)c1cc(O)cc(O)c1 [α-Resorcylic acid, 3,5-dihydroxybenzoic acid] |  |  | 

The remaining lines, values behind:

Compound | Ki [1, 3] [µM] | Inhibition type [1] | IC50 [1] [µM] | Ki [1, 4] [µM] | Ki' [1, 4] [µM] | Inhibition effect (in words) [1] | Inhibition effect (in words) [2] | Inhibition type [2]
O=C(O)c1cccc(O)c1 [3-Hydroxybenzoic acid, 3-hydroxybenzoic acid] | 176 ± 24.5 | Noncompetitive | 150 |  |  |  |  | 
O=C(/C=C/c1ccc(O)c(O)c1)O[C@@H]1C[C@](O)(C(=O)O)C[C@@H](O)[C@H]1O [Chlorogenic acid] | 1.56 ± 0.436 | mixed type | 5.47 | 28.05 | 28.05 ± 10.210 | strong inhibition effect |  | 
COc1cc(C=CC(=O)O)ccc1O [Ferullic acid, 4-Hydroxy-3-methoxycinnamic acid] | 72.5 ± 29.9 | Noncompetitive | 69 |  |  |  |  | 
O=C(O)c1cc(O)c(O)c(O)c1 [Gallic acid] | 219 ± 56.3 | Noncompetitive | 176 |  |  | weak inhibition effect |  | 
O=C(O)c1ccc(O)c(O)c1 [Protocatechuic acid, 3,4-dihydroxybenzoic acid] | 46.3 ± 31.5 | Noncompetitive | 48 |  |  |  |  | 
O=C(OCC1OC(OC(=O)c2cc(O)c(O)c(OC(=O)c3cc(O)c(O)c(O)c3)c2)C(OC(=O)c2cc(O)c(O)c(OC(=O)c3cc(O)c(O)c(O)c3)c2)C(OC(=O)c2cc(O)c(O)c(OC(=O)c3cc(O)c(O)c(O)c3)c2)C1OC(=O)c1cc(O)c(O)c(OC(=O)c2cc(O)c(O)c(O)c2)c1)c1cc(O)c(O)c(OC(=O)c2cc(O)c(O)c(O)c2)c1 (stereo not shown) [Tannic acid] | 0.598 ± 0.148 | Noncompetitive | 0.5 |  |  | strong inhibition effect; also recorded: potent inhibition effect | potent inhibitor | mixed type
